Source: paper PMC11432330, “Novel Drug-like HsrA Inhibitors Exhibit Potent Narrow-Spectrum Antimicrobial Activities against Helicobacter pylori” (International Journal of Molecular Sciences, 2024)

Test system: H. pylori 26695
Test: In vivo inhibition of HsrA: RNA-Seq transcriptomic analysis of exposed cells
Format: cell-based, Helicobacter pylori
Conditions: for log2 Fold Change: exposed to lethal concentrations vs control
Experimental: Bacterial growth from three blood agar plates of H. pylori ATCC 700392 (aka 26695) incubated for 48 h at 37 °C under microaerobic conditions was aseptically resuspended in BHI + FBS and adjusted to 10^7 CFU/mL. BHI broth cultures were incubated microaerobically at 37 °C for 24 h. […] At this time, bacterial growth was stopped by adding 1.5 mL ice-cold RNA stop solution (95% absolute ethanol, 5% acid-buffered phenol) and subsequently incubated on ice. Control samples were exposed to the same amount of DMSO instead of the inhibitor. Helicobacter cells from all samples were harvested by centrifugation (4000 rpm at 4 °C for 10 min), then the pellets were quickly frozen by immersion in liquid nitrogen and stored at −80 °C.
RNA-Seq analysis was performed by GENEWIZ (Azenta Life Sciences, Leipzig, Germany). Frozen cell pellets from two biological replicates of each treatment condition were properly submitted to GENEWIZ in dry ice. RNA-Seq libraries were prepared according to standard protocols via rRNA depletion, RNA fragmentation and random priming, reverse transcription, 5’-phosphorylation and dA-tailing of cDNAs, adaptor ligation, and PCR enrichment. Once the quality of each library was confirmed, they were sequenced on an Illumina NovaSeq 6000 (Illumina, San Diego, CA, USA) with 150-bp paired-ends. Raw sequence reads were filtered to remove possible adapter sequences and nucleotides with poor quality using Trimmomatic v.0.36 [105]. The trimmed reads were subsequently mapped to the H. pylori strain 26695 reference genome NC_000915.1 available on NCBI, by using the Bowtie2 aligner v.2.2.6 [106]. Unique gene hit counts were calculated by using featureCounts from the Subread package v.1.5.2. Only unique reads that fell within the gene regions were counted. Using DESeq2 [108], a comparison of the gene expression between the control and treated groups of samples was performed. The Wald test was used to generate p-values and log2 fold changes. Genes with an adjusted p-value < 0.05 and absolute log2 fold change >1 were considered as differentially expressed genes (DEGs) for each comparison. The RNA-Seq data generated in this study have been deposited in ArrayExpress with the accession number E-MTAB-14255.

[1] = RNA-Seq, 4 × MIC, vs control samples

Question: With `NC(=NOC(=O)Nc1ccc(Cl)cc1)c1csc([N+](=O)[O-])c1` [Ligand V, N′-{[(4-chloroanilino)carbonyl]}oxy-5-nitrothiophene-3-carboximidamide] as the compound, how does the “Exposure until log10 CFU/mL diminished in one unit” value (4 × MIC, ~3 × 10^7 CFU/mL H. pylori 26695) read?
Answer: Its value is ~ 2 h.

Question: And the “Depletion in gene expression of 50S ribosomal proteins L21, L35, L27 and 30S ribosomal protein S10” value (RNA-Seq, 4 × MIC)?
Answer: The value was greater than 5.8 fold.

Question: What about the “Downregulation of ferrous iron transporter FeoB” value (RNA-Seq, 4 × MIC) of the same compound?
Answer: The value was ~ 2.5 fold.

Question: What about the “ORFs of the H. pylori genome with influenced expression” value (RNA-Seq, 4 × MIC) of the same compound?
Answer: The value was 23%.

Question: And the “Upregulation of ferritin (pfr, hp0653)” value (RNA-Seq, 4 × MIC)?
Answer: Its value is 4.7 fold.

Question: What about the “Upregulation of ferritin-like iron-binding protein NapA” value (RNA-Seq, 4 × MIC) of the same compound?
Answer: The value was 2.3 fold.

Question: And the Genes downregulated [1]?
Answer: Its Genes downregulated is 155.

Question: What about the Genes upregulated [1] of the same compound?
Answer: Its Genes upregulated is 212.

Question: And the “ORF with significantly changed transcript levels” value (RNA-Seq, 4 × MIC, absolute log2 fold change > 1, p-value < 0.05)?
Answer: The value was 367.

Question: What about the “log2 Fold Change HP0013” value (gene HP0013, lethal concentrations of V vs control) of the same compound?
Answer: Its value is 0.182.

Question: And the “log2 Fold Change HP0018” value (gene HP0018, lethal concentrations of V vs control)?
Answer: Its value is 0.356.

Question: And the “log2 Fold Change” value (gene HP0022)?
Answer: The value was -0.512.

Question: What about the “log2 Fold Change HP0028” value (gene HP0028, lethal concentrations of V vs control) of the same compound?
Answer: The value was 0.408.

Question: What about the “log2 Fold Change” value (gene HP0029) of the same compound?
Answer: Its value is -0.496.

Question: And the “log2 Fold Change HP0030” value (gene HP0030, lethal concentrations of V vs control)?
Answer: Its value is 0.184.

Question: And the “log2 Fold Change HP0033” value (gene HP0033, lethal concentrations of V vs control)?
Answer: The value was 0.361.

Question: And the “log2 Fold Change” value (gene HP0043)?
Answer: Its value is -0.566.

Question: What about the “log2 Fold Change” value (gene HP0054) of the same compound?
Answer: The value was -0.519.

Question: What about the “log2 Fold Change HP0063” value (gene HP0063, lethal concentrations of V vs control) of the same compound?
Answer: The value was 0.326.

Question: And the “log2 Fold Change HP0066” value (gene HP0066, lethal concentrations of V vs control)?
Answer: Its value is 0.182.

Question: And the “log2 Fold Change HP0081” value (gene HP0081, lethal concentrations of V vs control)?
Answer: The value was 0.173.

Question: What about the “log2 Fold Change HP0082” value (gene HP0082, lethal concentrations of V vs control) of the same compound?
Answer: Its value is 0.224.

Question: What about the “log2 Fold Change HP0089” value (gene HP0089, lethal concentrations of V vs control) of the same compound?
Answer: The value was 0.244.

Question: And the “log2 Fold Change” value (gene HP0099)?
Answer: Its value is -0.573.

Question: And the “log2 Fold Change HP0102” value (gene HP0102, lethal concentrations of V vs control)?
Answer: Its value is 0.190.

Question: And the “log2 Fold Change HP0104” value (gene HP0104, lethal concentrations of V vs control)?
Answer: Its value is 0.451.

Question: What about the “log2 Fold Change HP0106” value (gene HP0106, lethal concentrations of V vs control) of the same compound?
Answer: The value was 0.286.

Question: What about the “log2 Fold Change HP0121” value (gene HP0121, lethal concentrations of V vs control) of the same compound?
Answer: Its value is 0.408.

Question: What about the “log2 Fold Change HP0138” value (gene HP0138, lethal concentrations of V vs control) of the same compound?
Answer: Its value is 0.430.

Question: And the “log2 Fold Change” value (gene HP0141)?
Answer: Its value is -0.503.

Question: And the “log2 Fold Change” value (gene HP0142)?
Answer: The value was -0.490.

Question: And the “log2 Fold Change HP0144” value (gene HP0144, lethal concentrations of V vs control)?
Answer: The value was 0.204.

Question: What about the “log2 Fold Change HP0145” value (gene HP0145, lethal concentrations of V vs control) of the same compound?
Answer: Its value is 0.164.

Question: And the “log2 Fold Change” value (gene HP0149)?
Answer: The value was -0.471.

Question: What about the “log2 Fold Change” value (gene HP0151) of the same compound?
Answer: Its value is 1.340.

Question: What about the “log2 Fold Change HP0152” value (gene HP0152, lethal concentrations of V vs control) of the same compound?
Answer: Its value is 0.161.

Question: And the “log2 Fold Change HP0155” value (gene HP0155, lethal concentrations of V vs control)?
Answer: Its value is 0.192.

Question: And the “log2 Fold Change” value (gene HP0159)?
Answer: Its value is -0.532.

Question: And the “log2 Fold Change HP0166” value (gene HP0166, lethal concentrations of V vs control)?
Answer: The value was 0.208.

Question: What about the “log2 Fold Change HP0170” value (gene HP0170, lethal concentrations of V vs control) of the same compound?
Answer: Its value is 0.476.

Question: What about the “log2 Fold Change HP0186” value (gene HP0186, lethal concentrations of V vs control) of the same compound?
Answer: The value was 0.474.

Question: What about the “log2 Fold Change HP0195” value (gene HP0195, lethal concentrations of V vs control) of the same compound?
Answer: Its value is 0.229.

Question: What about the “log2 Fold Change” value (gene HP0202) of the same compound?
Answer: Its value is -0.569.

Question: And the “log2 Fold Change HP0209” value (gene HP0209, lethal concentrations of V vs control)?
Answer: Its value is 0.364.

Question: And the “log2 Fold Change HP0214” value (gene HP0214, lethal concentrations of V vs control)?
Answer: The value was 0.273.

Question: And the “log2 Fold Change HP0215” value (gene HP0215, lethal concentrations of V vs control)?
Answer: The value was 0.474.

Question: What about the “log2 Fold Change HP0221” value (gene HP0221, lethal concentrations of V vs control) of the same compound?
Answer: Its value is 0.231.

Question: What about the “log2 Fold Change” value (gene HP0222) of the same compound?
Answer: The value was -0.475.

Question: And the “log2 Fold Change HP0224” value (gene HP0224, lethal concentrations of V vs control)?
Answer: Its value is 0.431.

Question: And the “log2 Fold Change HP0230” value (gene HP0230, lethal concentrations of V vs control)?
Answer: Its value is 0.223.

Question: And the “log2 Fold Change HP0234” value (gene HP0234, lethal concentrations of V vs control)?
Answer: The value was 0.200.

Question: And the “log2 Fold Change” value (gene HP0257)?
Answer: Its value is -0.600.

Question: What about the “log2 Fold Change HP0263” value (gene HP0263, lethal concentrations of V vs control) of the same compound?
Answer: The value was 0.370.

Question: And the “log2 Fold Change HP0267” value (gene HP0267, lethal concentrations of V vs control)?
Answer: The value was 0.453.

Question: What about the “log2 Fold Change” value (gene HP0268) of the same compound?
Answer: Its value is -0.504.

Question: What about the “log2 Fold Change” value (gene HP0285) of the same compound?
Answer: Its value is -0.482.

Question: What about the “log2 Fold Change HP0290” value (gene HP0290, lethal concentrations of V vs control) of the same compound?
Answer: Its value is 0.227.

Question: And the “log2 Fold Change” value (gene HP0293)?
Answer: The value was -0.482.

Question: What about the “log2 Fold Change HP0315” value (gene HP0315, lethal concentrations of V vs control) of the same compound?
Answer: Its value is 0.371.

Question: And the “log2 Fold Change HP0316” value (gene HP0316, lethal concentrations of V vs control)?
Answer: Its value is 0.320.

Question: What about the “log2 Fold Change HP0322” value (gene HP0322, lethal concentrations of V vs control) of the same compound?
Answer: The value was 0.305.

Question: And the “log2 Fold Change HP0329” value (gene HP0329, lethal concentrations of V vs control)?
Answer: Its value is 0.261.

Question: What about the “log2 Fold Change HP0338” value (gene HP0338, lethal concentrations of V vs control) of the same compound?
Answer: Its value is 0.386.

Question: What about the “log2 Fold Change HP0339” value (gene HP0339, lethal concentrations of V vs control) of the same compound?
Answer: Its value is 0.459.

Question: What about the “log2 Fold Change HP0340” value (gene HP0340, lethal concentrations of V vs control) of the same compound?
Answer: Its value is 0.379.

Question: And the “log2 Fold Change HP0348” value (gene HP0348, lethal concentrations of V vs control)?
Answer: Its value is 0.281.

Question: What about the “log2 Fold Change HP0360” value (gene HP0360, lethal concentrations of V vs control) of the same compound?
Answer: The value was 0.234.

Question: And the “log2 Fold Change HP0385” value (gene HP0385, lethal concentrations of V vs control)?
Answer: Its value is 0.352.

Question: And the “log2 Fold Change HP0391” value (gene HP0391, lethal concentrations of V vs control)?
Answer: Its value is 0.386.

Question: What about the “log2 Fold Change HP0393” value (gene HP0393, lethal concentrations of V vs control) of the same compound?
Answer: The value was 0.172.

Question: What about the “log2 Fold Change” value (gene HP0396) of the same compound?
Answer: Its value is -0.496.

Question: What about the “log2 Fold Change HP0405” value (gene HP0405, lethal concentrations of V vs control) of the same compound?
Answer: The value was 0.308.

Question: And the “log2 Fold Change HP0408” value (gene HP0408, lethal concentrations of V vs control)?
Answer: Its value is 0.201.

Question: And the “log2 Fold Change HP0416” value (gene HP0416, lethal concentrations of V vs control)?
Answer: The value was 0.330.

Question: What about the “log2 Fold Change” value (gene HP0418) of the same compound?
Answer: Its value is -0.527.

Question: What about the “log2 Fold Change HP0420” value (gene HP0420, lethal concentrations of V vs control) of the same compound?
Answer: The value was 0.289.

Question: And the “log2 Fold Change HP0437” value (gene HP0437, lethal concentrations of V vs control)?
Answer: The value was 0.205.

Question: What about the “log2 Fold Change HP0440” value (gene HP0440, lethal concentrations of V vs control) of the same compound?
Answer: The value was 0.156.

Question: And the “log2 Fold Change HP0441” value (gene HP0441, lethal concentrations of V vs control)?
Answer: The value was 0.254.

Question: What about the “log2 Fold Change HP0447” value (gene HP0447, lethal concentrations of V vs control) of the same compound?
Answer: Its value is 0.436.
